Measured values as given in ChEMBL document CHEMBL1949621, “Fluorocyclines. 1. 7-fluoro-9-pyrrolidinoacetamido-6-demethyl-6-deoxytetracycline: a potent, broad spectrum antibacterial agent” (J Med Chem, 2012).
In brackets after ≈: the same amount, converted by molar mass.

Tests used:
Format in all cases: functional
Enterococcus faecalis [1] = experiment: Antibacterial activity against Enterococcus faecalis ATCC 103 29212
Pseudomonas aeruginosa = experiment: Antibacterial activity against Pseudomonas aeruginosa ATCC 111 27853
Klebsiella pneumoniae [2] = experiment: Antibacterial activity against tetracycline-resistant Klebsiella pneumoniae 153
Staphylococcus aureus [3] = experiment: microbe, parasite or virus in culture; settings: 158
Staphylococcus aureus [4] = experiment: Antibacterial activity against tetracycline- and methicillin-resistant Staphylococcus aureus 161
Acinetobacter baumannii = experiment: Antibacterial activity against Acinetobacter baumannii ATCC 19606 110
Streptococcus pneumoniae [5] = experiment: Antibacterial activity against tetracycline-resistant Streptococcus pneumoniae 160
Streptococcus pneumoniae [6] = experiment: microbe, parasite or virus in culture; settings: ATCC 106 49619
Description: Antibacterial activity against Streptococcus pneumoniae ATCC 106 49619

Escherichia coli [7] = experiment: Antibacterial activity against tetracycline-resistant Escherichia coli 155
Escherichia coli [8] = experiment: Antibacterial activity against Escherichia coli ATCC 107 25922
Klebsiella pneumoniae [9] = experiment: Antibacterial activity against Klebsiella pneumoniae ATCC 109 13883
Enterobacter cloacae = experiment: Antibacterial activity against Enterobacter cloacae ATCC 108 13047
Staphylococcus aureus [10] = experiment: Antibacterial activity against Staphylococcus aureus ATCC 101 29213
Enterococcus faecalis [11] = experiment: Antibacterial activity against tetracycline-resistant Enterococcus faecalis 159

| SMILES | MIC (Enterococcus faecalis [1]) [µg/mL] | MIC (Pseudomonas aeruginosa) [µg/mL] | MIC (Klebsiella pneumoniae [2]) [µg/mL] | MIC (Staphylococcus aureus [3]) [µg/mL] | MIC (Staphylococcus aureus [4]) [µg/mL] | MIC (Acinetobacter baumannii) [µg/mL] | MIC (Streptococcus pneumoniae [5]) [µg/mL] | MIC (Streptococcus pneumoniae [6]) [µg/mL] | MIC (Escherichia coli [7]) [µg/mL] | MIC (Escherichia coli [8]) [µg/mL] | MIC (Klebsiella pneumoniae [9]) [µg/mL] | MIC (Enterobacter cloacae) [µg/mL] | MIC (Staphylococcus aureus [10]) [µg/mL] | MIC (Enterococcus faecalis [11]) [µg/mL] |
| --- | --- | --- | --- | --- | --- | --- | --- | --- | --- | --- | --- | --- | --- | --- |
| CN(C)[C@@H]1C(O)=C(C(N)=O)C(=O)[C@@]2(O)C(O)=C3C(=O)c4c(O)c(NC(=O)CN5Cc6ccccc6C5)cc(F)c4C[C@H]3C[C@@H]12 | 0.25 (≈ 0.412 µM) | > 32 | 32 (≈ 52.8 µM) | 0.25 (≈ 0.412 µM) | 0.5 (≈ 0.824 µM) | 0.125 (≈ 0.206 µM) | 0.125 (≈ 0.206 µM) | 0.125 (≈ 0.206 µM) | 4 (≈ 6.59 µM) | 2 (≈ 3.3 µM) | 4 (≈ 6.59 µM) | 32 (≈ 52.8 µM) | 0.25 (≈ 0.412 µM) | 0.5 (≈ 0.824 µM) |
| CN(C)[C@@H]1C(O)=C(C(N)=O)C(=O)[C@@]2(O)C(O)=C3C(=O)c4c(O)c(NC(=O)CNc5cccnc5)cc(F)c4C[C@H]3C[C@@H]12 | 8 (≈ 13.8 µM) | > 32 | > 32 | > 32 | > 32 | > 8 | 2 (≈ 3.44 µM) | 0.25 (≈ 0.43 µM) | > 32 | 16 (≈ 27.5 µM) | 32 (≈ 55 µM) | > 32 | 4 (≈ 6.88 µM) | > 32 |
| CCNCC(=O)Nc1cc(F)c2c(c1O)C(=O)C1=C(O)[C@]3(O)C(=O)C(C(N)=O)=C(O)[C@@H](N(C)C)[C@@H]3C[C@@H]1C2 | 0.0625 (≈ 0.117 µM) | 8 (≈ 15 µM) | 8 (≈ 15 µM) | 1 (≈ 1.88 µM) | 0.25 (≈ 0.469 µM) | 2 (≈ 3.76 µM) | 0.0156 (≈ 0.0293 µM) | 0.0156 (≈ 0.0293 µM) | 16 (≈ 30 µM) | 0.25 (≈ 0.469 µM) | 1 (≈ 1.88 µM) | 0.5 (≈ 0.939 µM) | 0.0625 (≈ 0.117 µM) | 0.125 (≈ 0.235 µM) |
| CN(C)[C@@H]1C(O)=C(C(N)=O)C(=O)[C@@]2(O)C(O)=C3C(=O)c4c(O)c(NC(=O)CN5CCOCC5)cc(F)c4C[C@H]3C[C@@H]12 | 8 (≈ 13.9 µM) | > 32 | > 32 | 8 (≈ 13.9 µM) | 8 (≈ 13.9 µM) | 8 (≈ 13.9 µM) | 1 (≈ 1.74 µM) | 0.5 (≈ 0.87 µM) | > 32 | > 32 | > 32 | > 32 | 4 (≈ 6.96 µM) | 8 (≈ 13.9 µM) |
| CN(C)CC(=O)Nc1cc(F)c2c(c1O)C(=O)C1=C(O)[C@]3(O)C(=O)C(C(N)=O)=C(O)[C@@H](N(C)C)[C@@H]3C[C@@H]1C2 | 0.0156 (≈ 0.0293 µM) | 8 (≈ 15 µM) | 8 (≈ 15 µM) | 0.25 (≈ 0.469 µM) | 0.125 (≈ 0.235 µM) | 0.125 (≈ 0.235 µM) | 0.0156 (≈ 0.0293 µM) | 0.0156 (≈ 0.0293 µM) | 8 (≈ 15 µM) | 0.125 (≈ 0.235 µM) | 0.5 (≈ 0.939 µM) | 1 (≈ 1.88 µM) | 0.0156 (≈ 0.0293 µM) | 0.0312 (≈ 0.0586 µM) |
| CC(C)NCC(=O)Nc1cc(F)c2c(c1O)C(=O)C1=C(O)[C@]3(O)C(=O)C(C(N)=O)=C(O)[C@@H](N(C)C)[C@@H]3C[C@@H]1C2 | 0.0625 (≈ 0.114 µM) | 16 (≈ 29.3 µM) | 4 (≈ 7.32 µM) | 0.5 (≈ 0.915 µM) | 0.25 (≈ 0.457 µM) | 1 (≈ 1.83 µM) | 0.0156 (≈ 0.0285 µM) | 0.0156 (≈ 0.0285 µM) | 8 (≈ 14.6 µM) | 0.5 (≈ 0.915 µM) | 1 (≈ 1.83 µM) | 1 (≈ 1.83 µM) | 0.125 (≈ 0.229 µM) | 0.0625 (≈ 0.114 µM) |
| CN(C)[C@@H]1C(O)=C(C(N)=O)C(=O)[C@@]2(O)C(O)=C3C(=O)c4c(O)c(NC(=O)CN5CC[C@@H](O)C5)cc(F)c4C[C@H]3C[C@@H]12 | 2 (≈ 3.48 µM) | > 32 | > 32 | 16 (≈ 27.8 µM) | 2 (≈ 3.48 µM) | 32 (≈ 55.7 µM) | 0.5 (≈ 0.87 µM) | 0.25 (≈ 0.435 µM) | > 32 | 4 (≈ 6.96 µM) | 16 (≈ 27.8 µM) | 16 (≈ 27.8 µM) | 2 (≈ 3.48 µM) | 2 (≈ 3.48 µM) |
